In US20210038732A1, “ANTICANCER MICRORNA AND LIPID FORMULATIONS THEREOF” (INTERNA TECHNOLOGIES B.V., priority 2018, published 2021):

Key:
[1] = system: MPP2, STMN1, YWHAZ, and CCNA2; assay: Expression of G2/M related target genes by RT-PCR; format: cell-based, human; conditions: 10 nM; Hep3B, SNU449 and H1975; 24h, 48h and 72h; vs mock
Description: (§1) To prepare cDNA, first 100 ng total RNA was mixed with Random Hexamers (Qiagen; final concentration 2 μM) in a final volume of 12.5 μl in NFW, denatured for 5 min at 70° C. and immediately cooled on ice. Next, 7.5 μl of a cDNA synthesis mix was added, consisting of 4 μl 5×RT Buffer (Promega), 0.4 μl 25 mM dNTPs (Promega), 1 μl 200 U/μL MMLV RT-enzyme (Promega), 0.5 μL 40 U/μL RNAse Inhibitor (Promega) and 1.6 μL NFW. The following cDNA synthesis protocol was used:
Similar phenotype has been observed in Panc1 (pancreatic cancer cell) as well as H1975 (lung cancer cell) (data not shown). […] MPP2 and STMN1 associate with cytoskeleton and therefore regulate cell division and proliferation at the G2/M phase, while YWHAZ and CCNA2 play roles in regulation of G2/M phase checkpoint by binding and sequestering the cyclin-dependent kinases.

[2] = system: Renca Renal adenocarcinoma; assay: Primary tumor growth, syngeneic model; format: in vivo, mice; conditions: 10 mg/kg i.v BIW x 3-4 weeks, vs PBS
Text: (§2) In this study, the effect of miRNA-193a formulated in diamino lipid nanoparticles was investigated on the primary tumor growth in a panel of twelve syngeneic tumor models. Six to eight weeks mice (Shanghai Lingchang Bio-Technology Co. Ltd, Shanghai, China) were subcutaneously injected with an appropriate number of syngeneic cancer cells, depending on the cancer model (see Table 18). At the time of randomization, tumor volume (TV) was approximately 80-120 mm^3. Body weights and TVs (caliper measurements) were determined 2-3 times/week. After randomization (indicated as day 0) mice received PBS or miR-193a (formulated in diamino lipid nanoparticles) treatments as shown in Table 19. Each tumor model had two groups as depicted in Table 19. Mice were scheduled to be euthanized after two weeks of follow up after a maximum of four weeks of treatment.

[3] = system: B16-BL6 Melanoma; assay: Primary tumor growth, syngeneic model; format: in vivo, mice; conditions: 10 mg/kg i.v BIW x 3-4 weeks, vs PBS
Text: as §2

[4] = system: K-Ras, MCL1, ENTPD1 (CD39) and TIM-3; assay: PD effect: target gene mRNA in orthotopic 4T1 tumors by qPCR (Example 4.6); format: in vivo, mice; conditions: 10 mg/kg iv QDx2; various time points 2-72 h post final dose
Description: as §1
Six to eight weeks old female BALB/c mice (Shanghai Lingchang Bio-Technology Co. Ltd, Shanghai, China) were injected with 3×10^5 4T1 mouse tumor cells in PBS (0.1 mL/mouse) into the mammary fat pad. At the time of randomization, the tumor volumes (TVs) ranged between 252.30-370.45 mm^3. After randomization mice received similar treatments with similar dosing regimen (see Table 11). Mice were sacrificed at pre-determined time points (see Table 11). The tumors from each mouse were collected, snap frozen in liquid nitrogen and then stored at −80° C.
Assessed genes include K-Ras, MCL1, ENTPD1 (CD39) and TIM-3. The role and biological importance for these target genes is briefly discussed in Table 12.

[5] = system: genes downregulated in at least three cell lines; assay: Annotation clustering of downregulated genes with DAVID software; parameters: species or system human
Text: For clustering and pathway analysis, a bigger gene set was required. […] Other clusters contained genes with roles in angiogenesis, unfolded protein response, chemotaxis, protein transport, nucleoside metabolism, glycosylation, oncogenesis, wound healing. […] These 161 genes are ERMP1, MCL1, ZDHHC18, KIAA1147, IDS, EIF4B, ETS1, TXLNA, NT5E, WSB2, PLAUR, LRRC40, PTPLB, SLC15A1, NCEH1, IL17RD, STMN1, AIMP2, PHACTR2, GALNT1, LAMC2, SCP2, SLC26A2, LUZP1, SHMT2, UBP1, PHLDA2, ST5, ENDOD1, CGNL1, MARCKSL1, RAB11FIP5, CCND1, RUSC1, FAM168B, ZC3H7B, PPTC7, SLC39A5, ACSS2, TPP1, HYOU1, DCTN5, CRKL, WDFY2, WDR82, SLC6A12, CDK6, SULF2, TWISTNB, ATP5F1, ALDH9A1, TOR4A, NET1, RSF1, NUP50, ZMAT3, AP2M1, MPP2, ITGB3, GALNT14, SLC35D1, PPARGC1A, TBL1XR1, MSANTD3, CLSTN1, PITPNB, CECR2, KIAA1644, ARHGAP29, KIAA1191, GREB1, PIK3R1, TNFRSF21, SEPN1, SYNRG, LRP4, ZNF365, CRYAA, MED21, GNAI3, ATP5SL, UBE2L6, ANKRD13A, GCH1, NIPA1, TRIM62, USP39, HEG1, DCAF7, LRRC8A, SOX5, IRF1, MORC4, UNC119B, FAF2, SLC30A1, C1QBP, ST3GAL4, TRIB2, TBC1D5, TMPPE, MAPK8, CBX1, CADM1, CCDC28A, YWHAZ, ERAP2, STON2, AP5M1, TGFB2, CYTH1, FAM20B, DPY19L1, ARHGAP19, LPAR3, LMLN, NUDT15, PLAU, VAMP8, HHAT, AGPAT1, ATP8B2, ACPL2, SCAMP4, LAT2, OSMR, NUDT21, HPRT1, STARD7, GABPA, CDC42EP2, THBS4, ATP6V1B2, PRNP, GFPT1, MAX, KRAS, CNOT6, NUDT3, RFWD3, APPL1, SLC23A2, BOD1, PDE3A, SLC30A7, CEP41, NOTCH2, RGS2, CDC42EP4, TP53INP1, SQSTM1, DDAH1, SLC35D2, FOCAD, GPATCH11, CBL, TMEM30B, HFE, PLEKHB2, ARPC5, and ABI2. Among these genes, NT5E, TNFRSF21, YWHAZ, MAPK8, PLAU, PLAUR, NOTCH2, ETS1, IL17RD, CDK6, EIF4B, and MCL1 are particularly interesting for their crucial involvement in the cell cycle pathway, in immune activation, as well as in cell movement. […] ETS1, YWHAZ, MPP2, PLAU, CDK4, CDK6, EIF4B, RAD51, CCNA2, STMN1, and DCAF7 are of particular interest for their crucial involvement in regulation of the cell cycle.

miRNA-193a: duplex of the miRNA-193a-3p of SEQ ID NO: 218 (mimic, sense) with antisense strand SEQ ID NO: 219; naked in vitro, formulated in vivo (sense UGGGACUUUGUAGGCCAGUUTT; antisense AACUGGCCUACAAAGUCCCAGU; chemistry not given here; listed as Homo sapiens)
Expression level of G2/M related target genes [1]: down-regulated
% TGI by miRNA-193a [2]: 22%
% TGI by miRNA-193a [3]: 34%
Target mRNAs expression in tumor [4]: significant reduction
Enrichment score (ES) ([5]; Gene cluster Angiogenesis): 2.17
Enrichment score (ES) ([5]; Gene cluster Apoptosis): 2.55
Enrichment score (ES) ([5]; Gene cluster Chemotaxis): 1.66
Enrichment score (ES) ([5]; Gene cluster Glycosylation): 1.47
Enrichment score (ES) ([5]; Gene cluster Immune activation): 1.16
Enrichment score (ES) ([5]; Gene cluster Nucleoside metabolism): 1.49
Enrichment score (ES) ([5]; Gene cluster Oncogenesis): 1.37
Enrichment score (ES) ([5]; Gene cluster Protein transport): 1.51
Enrichment score (ES) ([5]; Gene cluster Unfolded protein response): 1.84
Enrichment score (ES) ([5]; Gene cluster Wound healing): 1.18
